Assay results from ChEMBL document CHEMBL1287668, “Synthesis, antioxidant and toxicological study of novel pyrimido quinoline derivatives from 4-hydroxy-3-acyl quinolin-2-one” (Bioorg Med Chem Lett, 2010).

Legend:
[1] = Antioxidant activity assessed as EDTA chelating effect after 10 mins by spectrophotometric analysis; format: functional
[2] = Antioxidant activity assessed as super oxide scavenging activity after 150 mins by spectrophotometric analysis; format: functional; design: concentration or dose not given beside the values
[3] = Antioxidant activity assessed as nitric oxide scavenging activity after 150 mins by spectrophotometric analysis; format: functional; design: concentration or dose not given beside the values
[4] = Antioxidant activity assessed as total reducing activity after 30 mins by spectrophotometric analysis; format: functional
[5] = test system: Radical scavenging activity; assay: Antioxidant activity assessed as DPPH free radical scavenging activity after 30 mins by spectrophotometric analysis; format: functional
[6] = Antioxidant activity assessed as ferric ion reducing ability by spectrophotometric analysis; format: functional
Rattus norvegicus [7] = assay: Toxicity in Wistar rat assessed as grip strength at 200 mg/kg, po measured after 24 hrs; format: organism-based; design: dose 200 mg/kg, route oral; conditions: in vivo
Rattus norvegicus [8] = assay: Toxicity in Wistar rat assessed as incidence of convulsion at 200 mg/kg, po measured after 24 hrs; format: organism-based; design: dose 200 mg/kg, route oral; conditions: in vivo
Rattus norvegicus [9] = assay: Toxicity in Wistar rat fed 4 hrs post dosing assessed as incidence of adverse effects at 2 mg/kg, po administered as single dose measured on day one; format: organism-based; design: dose 2 mg/kg, route oral; conditions: in vivo
[10] = Toxicity in po dosed Wistar rat; format: organism-based; conditions: in vivo
Rattus norvegicus [11] = assay: Toxicity in Wistar rat fed 4 hrs post dosing assessed as incidence of adverse effects at 2 mg/kg, po administered as single dose measured on day 14; format: organism-based; design: dose 2 mg/kg, route oral; conditions: in vivo
Rattus norvegicus [12] = assay: Toxicity in Wistar rat assessed as pupil dilatation at 200 mg/kg, po measured after 24 hrs; format: organism-based; design: dose 200 mg/kg, route oral; conditions: in vivo
Rattus norvegicus [13] = assay: Toxicity in Wistar rat assessed as incidence of tremor at 200 mg/kg, po measured after 24 hrs; format: organism-based; design: dose 200 mg/kg, route oral; conditions: in vivo

SMILES: CC1=NNC(=O)Nc2c1c(=O)[nH]c1ccccc21
- Activity [1]: 12.3 mg
- Activity [2]: 40.9%
- Activity [3]: 16.1%
- Activity [4]: 2590 µmol
- Activity [5]: 540 µg

SMILES: Cc1nc(=S)[nH]c2c1c(=O)[nH]c1ccccc12
- Activity [1]: 9.6 mg
- Activity [2]: 22.4%
- Activity [3]: 12%
- Activity [4]: 3630 µmol
- Activity [5]: 1040 µg
- Activity [6]: 145 mmol

SMILES: Cc1noc2c1c(=O)[nH]c1ccccc12
- Activity [1]: 4.9 mg
- Activity [2]: 16.6%
- Activity [3]: 40.3%
- Activity [4]: 4010 µmol
- Activity [5]: 466 µg
- Activity [6]: 169 mmol

SMILES: Cc1nc(=O)[nH]c2c1c(=O)[nH]c1ccccc12
- Activity [1]: 10.7 mg
- Activity [2]: 38%
- Activity (Rattus norvegicus [7]): Toxic
- Activity [3]: 62.3%
- Activity (Rattus norvegicus [8]): Toxic
- Activity (Rattus norvegicus [9]): Non-toxic
- MTD [10]: 2000 mg/kg
- Activity (Rattus norvegicus [11]): Non-toxic
- Activity (Rattus norvegicus [12]): Toxic
- Activity [4]: 3880 µmol
- Activity (Rattus norvegicus [13]): Toxic
- Activity [5]: 1410 µg
- Activity [6]: 205 mmol

SMILES: CC1=NNC(=S)Nc2c1c(=O)[nH]c1ccccc21
- Activity [1]: 9.1 mg
- Activity [2]: 74.5%
- Activity (Rattus norvegicus [7]): Toxic
- Activity [3]: 61.6%
- Activity (Rattus norvegicus [8]): Toxic
- Activity (Rattus norvegicus [9]): Non-toxic
- MTD [10]: 2000 mg/kg
- Activity (Rattus norvegicus [11]): Non-toxic
- Activity (Rattus norvegicus [12]): Toxic
- Activity [4]: 2650 µmol
- Activity (Rattus norvegicus [13]): Toxic
- Activity [5]: 752 µg

SMILES: Cc1[nH]nc2c1c(=O)[nH]c1ccccc12
- Activity [1]: 10.4 mg
- Activity [2]: 8.7%
- Activity [3]: 18.5%
- Activity [4]: 1230 µmol
- Activity [5]: 1110 µg
- Activity [6]: 150 mmol

SMILES: Cc1cc(C(C)(C)C)c(O)c(C(C)(C)C)c1
- Activity [1]: 13.2 mg
- Activity [2]: 87.1%
- Activity [3]: 92.1%
- Activity [4]: 13100 µmol
- Activity [5]: 150 µg
- Activity [6]: 134 mmol

SMILES: COc1ccc(O)c(C(C)(C)C)c1.COc1ccc(O)cc1C(C)(C)C
- Activity [1]: 16.1 mg
- Activity [2]: 76.5%
- Activity [3]: 79.1%
- Activity [4]: 8050 µmol
- Activity [5]: 170 µg
